{
  "source": "patent US8247211B2",
  "about": "“Glycopeptide antibiotics” (American Cyanamid Company, priority 2001, dated 2012)",
  "assay_in_all_cases": "In vitro antibacterial evaluation: minimum inhibitory concentration (MIC), broth dilution method",
  "assay_type_in_all_cases": "cell-based",
  "key": {"[1]": {"system": "Enterococcus sp.", "conditions": "broth dilution, 5×10^5 CFU/mL, 18 hours at 35° C.", "description": "(§1) The minimum inhibitory concentration (MIC), the lowest concentration of the antibiotic which inhibits growth of the test organism, is determined by the broth dilution method using Muller-Hinton II […] (Baltimore Biological Laboratories) following the recommendations of the National Committee for Clinical Laboratory Standards [Methods for dilution antimicrobial susceptibility tests for bacteria that grow aerobically, approved standard M7-A2, National Committee for Clinical Laboratory Standards, Villanova, Pa].\n(§2) An inoculum level of 5×10^5 CFU/mL, and a range of antibiotic concentrations (64-0.06 μg/mL) is used. […] The test organisms include a spectrum of Gram-positive bacteria comprised of Staphylococcus sp., Streptococcus sp. and Enterococcus sp. These organisms include recent clinical isolates that are resistant to methicillin, penicillin and/or vancomycin."}, "[2]": {"system": "Staphylococcus sp.", "conditions": "for MIC Staphylococcus aureus (ATCC 29213): strain ATCC 29213; for MIC Staphylococcus aureus (GC 1131): strain GC 1131; for MIC Staphylococcus aureus (GC 3051): strain GC 3051; for MIC Staphylococcus aureus (GC 3053): strain GC 3053; for MIC Staphylococcus aureus (GC 4541): strain GC 4541; for MIC Staphylococcus aureus (GC 4542): strain GC 4542; for MIC Staphylococcus aureus-SMITH (GC 4543): strain GC 4543; for MIC Staphylococcus aureus (GC 4544): strain GC 4544; for MIC Staphylococcus aureus (GC 4545): strain GC 4545; for MIC Staphylococcus haemolyticus (GC 4546): strain GC 4546; for MIC Coagulase Negative Staphylococcus (GC 4547): strain GC 4547; for MIC Coagulase Negative Staphylococcus (GC 4548): strain GC 4548; for MIC Coagulase Negative Staphylococcus (GC 4549): strain GC 4549; for MIC Coagulase Negative Staphylococcus (GC 4551): strain GC 4551; for MIC Coagulase Negative Staphylococcus (GC 6257): strain GC 6257", "description": "as §1, §2"}, "[3]": {"system": "Escherichia coli", "conditions": "5×10^5 CFU/mL, 18 hours at 35° C.", "description": "as §1, §2"}, "[4]": {"system": "Streptococcus sp.", "conditions": "broth dilution, 5×10^5 CFU/mL, 18 hours at 35° C.", "description": "as §1, §2"}, "[5]": {"conditions": "broth dilution, 18 hours at 35° C."}},
  "data": [
    {"smiles": "CC(c1ccccc1)C1NC(=O)CNC(=O)C(CO)NC(=O)C(C(O)C2CNC(=N)N2C2OC(CO)C(O)C(O)C2O)NC(=O)C(C(O)C2CNC(=N)N2)NC(=O)C(Cc2ccc(OC3OC(CO)C(OC4OC5COC(CCc6ccccc6)OC5C(O)C4O)C(O)C3O)cc2)NC1=O", "note": "(centres unmarked) [Example 124]", "values": [
      {"measurement": "MIC Enterococccus avium (GC 4558)", "setting": "[1]", "value": 0.25, "unit": "µg/mL"},
      {"measurement": "MIC Enterococccus faecalis (ATCC 29212)", "setting": "[1]", "value": 4, "unit": "µg/mL"},
      {"measurement": "MIC Enterococccus faecalis (GC 2691)", "setting": "[1]", "value": 4, "unit": "µg/mL"},
      {"measurement": "MIC Enterococccus faecalis (GC 3059)", "setting": "[1]", "value": 4, "unit": "µg/mL"},
      {"measurement": "MIC Enterococccus faecalis (GC 4552)", "setting": "[1]", "value": 4, "unit": "µg/mL"},
      {"measurement": "MIC Enterococccus faecalis (GC 4553)", "setting": "[1]", "value": 4, "unit": "µg/mL"},
      {"measurement": "MIC Enterococccus faecalis (GC 4554)", "setting": "[1]", "value": 4, "unit": "µg/mL"},
      {"measurement": "MIC Enterococccus faecalis (GC 6189)", "setting": "[1]", "value": 4, "unit": "µg/mL"},
      {"measurement": "MIC Enterococccus faecium (GC 2243)", "setting": "[1]", "value": 4, "unit": "µg/mL"},
      {"measurement": "MIC Enterococccus faecium (GC 4556)", "setting": "[1]", "value": 4, "unit": "µg/mL"},
      {"measurement": "MIC Enterococccus faecium (GC 4557)", "setting": "[1]", "value": 1, "unit": "µg/mL"},
      {"measurement": "MIC Enterococcus faecalis (GC 2242)", "setting": "[1]", "value": 4, "unit": "µg/mL"},
      {"measurement": "MIC Staphylococcus aureus (ATCC 29213)", "setting": "[2]", "value": 2, "unit": "µg/mL"},
      {"measurement": "MIC Staphylococcus aureus (ATCC 29213)", "setting": "[2]; [5]", "value": 2, "unit": "µg/mL"},
      {"measurement": "MIC Staphylococcus aureus (GC 1131)", "setting": "[2]", "value": 2, "unit": "µg/mL"},
      {"measurement": "MIC Staphylococcus aureus (GC 1131)", "setting": "[2]; [5]", "value": 2, "unit": "µg/mL"},
      {"measurement": "MIC Staphylococcus aureus (GC 3051)", "setting": "[2]", "value": 2, "unit": "µg/mL"},
      {"measurement": "MIC Staphylococcus aureus (GC 3051)", "setting": "[2]; [5]", "value": 2, "unit": "µg/mL"},
      {"measurement": "MIC Staphylococcus aureus (GC 3053)", "setting": "[2]", "value": 2, "unit": "µg/mL"},
      {"measurement": "MIC Staphylococcus aureus (GC 3053)", "setting": "[2]; [5]", "value": 2, "unit": "µg/mL"},
      {"measurement": "MIC Staphylococcus aureus (GC 4541)", "setting": "[2]", "value": 2, "unit": "µg/mL"},
      {"measurement": "MIC Staphylococcus aureus (GC 4541)", "setting": "[2]; [5]", "value": 2, "unit": "µg/mL"},
      {"measurement": "MIC Staphylococcus aureus (GC 4542)", "setting": "[2]", "value": 1, "unit": "µg/mL"},
      {"measurement": "MIC Staphylococcus aureus (GC 4542)", "setting": "[2]; [5]", "value": 1, "unit": "µg/mL"},
      {"measurement": "MIC Staphylococcus aureus-SMITH (GC 4543)", "setting": "[2]; 18 hours at 35° C.", "value": 2, "unit": "µg/mL"},
      {"measurement": "MIC Staphylococcus aureus-SMITH (GC 4543)", "setting": "[2]; [5]", "value": 2, "unit": "µg/mL"},
      {"measurement": "MIC Staphylococcus aureus (GC 4544)", "setting": "[2]", "value": 2, "unit": "µg/mL"},
      {"measurement": "MIC Staphylococcus aureus (GC 4544)", "setting": "[2]; [5]", "value": 2, "unit": "µg/mL"},
      {"measurement": "MIC Staphylococcus aureus (GC 4545)", "setting": "[2]", "value": 2, "unit": "µg/mL"},
      {"measurement": "MIC Staphylococcus aureus (GC 4545)", "setting": "[2]; [5]", "value": 2, "unit": "µg/mL"},
      {"measurement": "MIC Staphylococcus haemolyticus (GC 4546)", "setting": "[2]", "value": 2, "unit": "µg/mL"},
      {"measurement": "MIC Staphylococcus haemolyticus (GC 4546)", "setting": "[2]; [5]", "value": 2, "unit": "µg/mL"},
      {"measurement": "MIC Coagulase Negative Staphylococcus (GC 4547)", "setting": "[2]", "value": 2, "unit": "µg/mL"},
      {"measurement": "MIC Coagulase Negative Staphylococcus (GC 4547)", "setting": "[2]; [5]", "value": 2, "unit": "µg/mL"},
      {"measurement": "MIC Coagulase Negative Staphylococcus (GC 4548)", "setting": "[2]", "value": 1, "unit": "µg/mL"},
      {"measurement": "MIC Coagulase Negative Staphylococcus (GC 4548)", "setting": "[2]; [5]", "value": 1, "unit": "µg/mL"},
      {"measurement": "MIC Coagulase Negative Staphylococcus (GC 4549)", "setting": "[2]", "value": 1, "unit": "µg/mL"},
      {"measurement": "MIC Coagulase Negative Staphylococcus (GC 4549)", "setting": "[2]; [5]", "value": 1, "unit": "µg/mL"},
      {"measurement": "MIC Coagulase Negative Staphylococcus (GC 4551)", "setting": "[2]", "value": 2, "unit": "µg/mL"},
      {"measurement": "MIC Coagulase Negative Staphylococcus (GC 4551)", "setting": "[2]; [5]", "value": 2, "unit": "µg/mL"},
      {"measurement": "MIC Coagulase Negative Staphylococcus (GC 6257)", "setting": "[2]", "value": 1, "unit": "µg/mL"},
      {"measurement": "MIC Coagulase Negative Staphylococcus (GC 6257)", "setting": "[2]; [5]", "value": 1, "unit": "µg/mL"},
      {"measurement": "MIC Escherichia coli (ATCC 25922)", "setting": "[3]", "value": 32, "unit": "µg/mL"},
      {"measurement": "MIC Escherichia coli (GC 4559)", "setting": "[3]", "value": 32, "unit": "µg/mL"},
      {"measurement": "MIC Escherichia coli (GC 4560)", "setting": "[3]", "value": 1, "unit": "µg/mL"},
      {"measurement": "MIC Streptococcus agalactiae (GC 4564)", "setting": "[4]", "value": 1, "unit": "µg/mL"},
      {"measurement": "MIC Streptococcus pneumoniae (GC 1894)", "setting": "[4]", "value": "<0.06", "unit": "µg/mL"},
      {"measurement": "MIC Streptococcus pneumoniae (GC 4565)", "setting": "[4]", "value": "<0.06", "unit": "µg/mL"},
      {"measurement": "MIC Streptococcus pneumonine (ATCC 6301)", "setting": "[4]", "value": "<0.06", "unit": "µg/mL"},
      {"measurement": "MIC Streptococcus pyogenes (GC 4563)", "setting": "[4]", "value": 0.12, "unit": "µg/mL"}
    ]}
  ]
}
